Test results taken from patent US20060194811A1, “Pyrimidine derivatives” (KYOWA HAKKO KOGYO CO., LTD., priority 2003, published 2006).
Like-named read-outs stand apart in the source and are kept apart here.

Experiments:
[1] = molecular target: T1, TARC binding to Hut78 cells (Homo sapiens, UniProt P51679); experiment: Inhibitory activity on binding of [125I]-TARC to Hut78 cells; details: for inhibition at 1 µM: read-out: The Binding Inhibitory Rates at 1 μmol/L (%)
T1 construct: host or cells: Hut78 cells (whole cells)
T1 sequence (P51679 1-360): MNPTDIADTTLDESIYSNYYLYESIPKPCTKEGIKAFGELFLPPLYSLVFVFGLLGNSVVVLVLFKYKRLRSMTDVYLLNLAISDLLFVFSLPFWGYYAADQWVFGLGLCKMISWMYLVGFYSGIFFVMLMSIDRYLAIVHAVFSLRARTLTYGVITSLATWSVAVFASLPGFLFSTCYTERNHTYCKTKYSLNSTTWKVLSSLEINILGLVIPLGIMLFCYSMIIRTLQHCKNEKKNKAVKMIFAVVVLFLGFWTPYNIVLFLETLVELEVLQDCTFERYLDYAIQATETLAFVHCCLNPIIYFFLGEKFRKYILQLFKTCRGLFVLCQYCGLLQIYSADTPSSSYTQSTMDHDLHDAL
Protocol: Inhibitory Activity on Binding of [^125I]-TARC to Hut78 Cells
The RPMI-1640 medium (Sigma-Aldrich Japan) containing 20 mmol/L HEPES [4-(2-hydroxyethyl)-1-piperazinylethanesulfonic acid; HEPES, Nacalai Tesque, Inc.] and 0.1 w/v % bovine serum albumin (SEIKAGAKU CORPORATION) was adjusted to pH 7.0 with sodium hydrogencarbonate (Wako Pure Chemical Industries, Ltd.) to yield a binding/wash buffer. In a 96-well round-bottomed plate (Corning Costar Corporation) were placed 60 μL of a suspension of Hut78 cells (ATCC No. TIB-161) (3×10^5 cells) in the binding/wash buffer, 20 μL of a solution of a test compound and 20 μL of a solution of 810 Bq of [^125I]-TARC (Amersham Biosciences K.K.) diluted with the binding/wash buffer up to the total aliquot of 100 μL, followed by reaction at room temperature for two hours. The solution of the test compound had been prepared by dissolving the test compound in dimethyl sulfoxide (Nacalai Tesque, Inc.) to a concentration of 10 mmol/L, and diluting the solution with the binding/wash buffer to a series of concentrations. The nonspecific binding was determined by a binding assay in the presence of a sufficient amount of unlabeled TARC. The total binding was defined as a binding in the case where dimethyl sulfoxide (Nacalai Tesque, Inc.) was added, instead of the test compound, in the same concentration (0.1 v/v %). After binding [^125I]-TARC to Hut78 cells, 50 μL of a polyethyleneimine solution (Nacalai Tesque, Inc.) diluted to 0.3 w/v % with the binding/wash buffer was added each of wells of a glass filter (Unifilter GF/B96, Packard BioScience Company), was rapidly filtrated using Filtermate 196 (Packard BioScience Company) and washed with the binding/wash buffer at 4° C. to thereby separate the radioactive ligand which is not bound to the cells. Microscinti 20 (Packard BioScience Company) was placed in each well at 50 μL/well, and the radioactivity on the glass filter was determined using Topcount NXT™ (Packard BioScience Company). The binding inhibitory rates (%) of the test compounds were determined by calculation according to the following equation: [formula] Total binding: [^125I]-TARC binding radioactivity without addition of the test compound Binding upon addition of test compound: [^125I]-TARC binding radioactivity at respective concentration upon addition of test compound
Nonspecific binding: [^125I]-TARC binding radioactivity upon addition of unlabeled TARC

[2] = test system: CD4-positive T cells and eosinophils in the bronchoalveolar lavage fluid; experiment: Inhibitory activities on antigen-induced cellular infiltration (ovalbumin-sensitized mice, bronchoalveolar lavage fluid); assay type: in vivo, BALB/c mice
Protocol: Inhibitory Activities on Antigen-Induced Cellular Infiltration and Cytokine Production
BALB/c mice were sensitized by intraperitoneally administrating 50 μg of ovalbumin (Sigma-Aldrich Japan) and 1 mg of aluminum hydroxide (Wako Pure Chemical Industries, Ltd.) and further sensitized in the same manner on the 7th day from the first sensitization (0 day). From on the 23rd day, the mice were allowed to inhale a 1% ovalbumin physiological saline solution [prepared by dissolving ovalbumin in physiological saline (Otsuka Pharmaceutical Co., Ltd.) to a concentration 1%] using Supersonic Nebulizer NE-U 12 (OMRON Corporation) for 30 minutes once per 2 days (antigen nebulization). DMSO (Kanto Kagaku), Tween 80 (Wako Pure Chemical Industries), and 10 mmol/L acetic acid buffer containing 0.9% sodium chloride were mixed at a ratio of 5 to 5 to 90, whereby a liquid (an administration solvent) was prepared. Each test compound was dissolved in the administration solvent, whereby a solution for subcutaneous administration was prepared. The mice were grouped into test compound-administered groups and a control group. The test compound was subcutaneously administered to the mice of each of the test compound-administered groups at a dose of 30 mg/kg and the administration solvent was subcutaneously administered to the mice of the control group 30 minutes prior to the fourth antigen nebulization and after 4 hours from the fourth antigen nebulization. 8 hours after the fourth antigen nebulization, the bronchoalveolar lavage of each mouse was performed to obtain a bronchoalveolar lavage fluid. The number of CD4-positive T cells and eosinophils in the bronchoalveolar lavage fluid were counted. 10 mice were subjected to the each group in the test.

[3] = test compound 1 μmol/L, [125I]-TARC, Hut78 cells, room temperature, two hours

CC1CCCN(C2CCN(c3ncc(-c4ccc(F)cc4F)c(NCc4c(F)cccc4F)n3)CC2)C1 (centres unmarked) [Compound 15, 4-(2,6-difluorobenzylamino)-5-(2,4-difluorophenyl)-2-[4-(3-methylpiperidino)piperidino]pyrimidine]
inhibition at 1 µM [1]: 90%

Fc1ccc(-c2cnc(N3CCC(N4CCCCC4)CC3)nc2NCc2ccc(Cl)cc2F)c(F)c1 [Compound 58, 4-(4-chloro-2-fluorobenzylamino)-5-(2,4-difluorophenyl)-2-(4-piperidinopiperidino)pyrimidine]
inhibition at 1 µM [1, 3]: 81%

CC1CCCCN1C1CCN(c2ncc(-c3ccc(F)cc3F)c(NCc3ccc(F)cc3F)n2)CC1 (centres unmarked) [Compound 3, 4-(2,4-difluorobenzylamino)-5-(2,4-difluorophenyl)-2-[4-(2-methylpiperidino)piperidino]pyrimidine]
inhibition at 1 µM [1]: 93%

4-(2,4-difluorobenzylamino)-5-(2,4-difluorophenyl)-2-[4-(1-methylpiperidinio)piperidino]pyrimidine iodide [Compound 72]
The Binding Inhibitory Rates at 1 μmol/L (%) [1, 3]: 96%

CC[N+]1(C2CCN(c3ncc(-c4ccc(F)cc4F)c(NCc4ccc(F)cc4F)n3)CC2)CCCCC1.[I-] [Compound 73, 4-(2,4-difluorobenzylamino)-5-(2,4-difluorophenyl)-2-[4-(1-ethylpiperidinio)piperidino]pyrimidine iodide]
The Binding Inhibitory Rates at 1 μmol/L (%) [1, 3]: 99%

C=CC[N+]1(C2CCN(c3ncc(-c4ccc(F)cc4F)c(NCc4ccc(F)cc4F)n3)CC2)CCCCC1.[Br-] [Compound 75, 2-[4-(1-allylpiperidinio)piperidino]-4-(2,4-difluorobenzylamino)-5-(2,4-difluorophenyl)pyrimidine bromide]
The Binding Inhibitory Rates at 1 μmol/L (%) [1, 3]: 97%

CC1CCCN(C2CCN(c3ncc(-c4ccc(F)cc4F)c(NCc4ccc(F)cc4F)n3)CC2)C1 (centres unmarked) [Compound 1, 4-(2,4-difluorobenzylamino)-5-(2,4-difluorophenyl)-2-[4-(3-methylpiperidino)piperidino]pyrimidine]
inhibition at 1 µM [1]: 91%

NC(=O)C1CCCN(C2CCN(c3ncc(-c4ccc(F)cc4F)c(NCc4ccc(F)cc4F)n3)CC2)C1 (centres unmarked) [Compound 8, 2-[4-(3-carbamoylpiperidino)piperidino]-4-(2,4-difluorobenzylamino)-5-(2,4-difluorophenyl)pyrimidine]
inhibition at 1 µM [1, 3]: 92%
number of eosinophils in a bronchoalveolar lavage fluid obtained from each mouse ([2]; 30 mg/kg subcutaneously 30 minutes prior to and 4 hours after fourth antigen nebulization, lavage 8 hours after, mean±standard error, control (1.5±0.1)×10^5): (0.6±0.1)×10^5
number of CD4-positive T cells in a bronchoalveolar lavage fluid obtained from each mouse ([2]; 30 mg/kg subcutaneously 30 minutes prior to and 4 hours after fourth antigen nebulization, lavage 8 hours after, mean±standard error, control (1.9±0.2)×10^4): (0.6±0.1)×10^4
number of CD4-positive T cells less than that of the control group ([2]; 30 mg/kg subcutaneously, bronchoalveolar lavage fluid, P<0.0001, Aspin-Welch test): 68%
number of eosinophils less than that of the control group ([2]; 30 mg/kg subcutaneously, bronchoalveolar lavage fluid, P<0.0001, Student's test): 57%

Fc1ccc(-c2cnc(N3CCC(N4CCCCC4)CC3)nc2NCc2c(F)cccc2Cl)c(F)c1 [Compound 61, 4-(2-chloro-6-fluorobenzylamino)-5-(2,4-difluorophenyl)-2-(4-piperidinopiperidino)pyrimidine]
inhibition at 1 µM [1, 3]: 82%

Fc1ccc(-c2cnc(N3CCC(N4CCCCC4)CC3)nc2NCc2c(F)cccc2F)c(F)c1 [Compound 40, 4-(2,6-difluorobenzylamino)-5-(2,4-difluorophenyl)-2-(4-piperidinopiperidino)pyrimidine]
inhibition at 1 µM [1, 3]: 89%
